Biological target: T1, hTRPV3 (Homo sapiens, UniProt Q8NET8)
T1 construct: The commercially available plasmid with the full-length cDNA of hTRPV3 (791 aa) (NM_001258205.2); host or cells: HEK293T
T1 sequence (Q8NET8 1-791 isoform Q8NET8-2): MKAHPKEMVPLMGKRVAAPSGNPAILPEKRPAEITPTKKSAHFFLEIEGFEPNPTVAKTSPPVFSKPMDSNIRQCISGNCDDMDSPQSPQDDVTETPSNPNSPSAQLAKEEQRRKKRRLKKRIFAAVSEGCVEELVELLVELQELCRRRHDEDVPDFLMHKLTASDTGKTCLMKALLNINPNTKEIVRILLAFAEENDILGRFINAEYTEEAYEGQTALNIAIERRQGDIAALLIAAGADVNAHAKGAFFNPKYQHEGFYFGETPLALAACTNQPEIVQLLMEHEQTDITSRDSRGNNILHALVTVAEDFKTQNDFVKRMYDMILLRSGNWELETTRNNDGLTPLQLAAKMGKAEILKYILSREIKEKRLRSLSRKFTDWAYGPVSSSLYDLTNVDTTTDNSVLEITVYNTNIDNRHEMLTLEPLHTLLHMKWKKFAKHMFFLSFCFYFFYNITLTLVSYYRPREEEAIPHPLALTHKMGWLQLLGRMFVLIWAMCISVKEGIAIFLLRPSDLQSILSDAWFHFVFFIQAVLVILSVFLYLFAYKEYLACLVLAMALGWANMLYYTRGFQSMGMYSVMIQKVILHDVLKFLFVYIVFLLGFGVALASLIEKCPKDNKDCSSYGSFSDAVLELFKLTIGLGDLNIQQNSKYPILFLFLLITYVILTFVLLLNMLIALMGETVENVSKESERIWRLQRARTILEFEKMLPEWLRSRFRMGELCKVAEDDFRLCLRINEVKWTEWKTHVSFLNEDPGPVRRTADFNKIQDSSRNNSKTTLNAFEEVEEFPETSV
Assay: Whole-cell patch-clamp recording of hTRPV3 current in transfected HEK293T cells (2-APB induced)
Assay type: cell-based
Conditions: current induced by 300 μM 2-APB, compounds tested up to 10 μM, room temperature
Protocol: Various technologies can be utilized to assess TRPV3 activation in accordance with the present disclosure. For example, in some embodiments, compounds are assessed in in vitro patch clamp experiments. Certain useful procedures are described herein as examples.
In some embodiments, whole-cell patch-clamp recordings were used to detect the current through hTRPV3 channels in the HEK293T cell line transfected with hTRPV3 cDNA and evaluate the exact blocking effect of compounds on hTRPV3. In some embodiments, a perfusion system was adopted to control the extracellular solution, including the addition of the agonist and different antagonists.
HEK293T cells were cultured in a Dulbecco's modified Eagle's medium containing 10% fetal bovine serum (Thermo Scientific) and 1% penicillin/streptomycin (Thermo Scientific) at 37° C. with 5% CO2. The commercially available plasmid with the full-length cDNA of hTRPV3 (791 aa) (NM_001258205.2) was purchased from OriGene Technologies. The transfection of hTRPV3 plasmids was conducted using Lipofectamine™ 3000 following the manufacturer's instructions (Invitrogen).
Whole-cell patch-clamp experiments were performed 18 h post-transfection, using a MultiClamp 700B amplifier driven by pClamp 11 software (Molecular Devices). In order to achieve good single-cell physical separation, HEK293T cells with hTRPV3 expression were digested and then re-plated at low density on glass coverslips. Electrodes were pulled from borosilicate glass with a P-97 micropipette puller (Sutter Instruments) and those with resistances of 3-5 MΩ are used for experiments. In some embodiments, an Ag—AgCl wire was used as a reference electrode and signals are filtered using a 2.9 kHz low-pass Bessel filter. Membrane potential was held at 0 mV. For recording of agonist-induced activation and inhibition by different test compounds, currents were elicited by a protocol consisting of a 400-ms step to +80 mV, followed by a 400-ms step to −80 mV at 2-s intervals. both pipette and bath solutions contained 130 mM NaCl, 0.3 mM EDTA, and 3 mM HEPES (buffered to pH 7.4 with NaOH). All recordings were made at room temperature.
All patch-clamp recordings were analyzed using the Clampfit software and GraphPad Prism 6.0 software. Specifically, data are analyzed by calculating the degree of current amplitude after the test compound addition compared with the unblocked agonist-induced current amplitude. The resulting blocking percentage at each concentration was used to make a concentration-response analysis and fitted to the Hill equation: blocking percentage=minimum blocking percentage+ (maximum blocking percentage-minimum blocking percentage)/(1+10^(Hill slope* […])). The minimum blocking percentage is 0% and maximum blocking percentage is 100%, while the Hill slope and the IC50 were determined as the curve fitting routine. Compounds of interest were tested against hTRPV3 at concentrations up to 10 μM, and certain data was used to estimate IC50 as described herein.

IC50 [nM]	Structure (SMILES)
≥ 10000	CCC1(CC)Oc2cc(C(F)(F)F)ccc2-c2nc(NC(=O)c3c(OC)nc(N)nc3OC)sc21 [compound 80, 2-amino-N-(4,4-diethyl-7-(trifluoromethyl)-4H-chromeno[4,3-d]thiazol-2-yl)-4,6-dimethoxypyrimidine-5-carboxamide]
1000 to 10000	CCC1(CC)Oc2cc(C(F)(F)F)ccc2-c2nc(NC(=O)c3c(C)n[nH]c3C)sc21 [compound 93, N-(4,4-diethyl-7-(trifluoromethyl)-4H-chromeno[4,3-d]thiazol-2-yl)-3,5-dimethyl-1H-pyrazole-4-carboxamide]
1000 to 10000	COc1ncnc(OC)c1C(=O)Nc1nc2c(s1)Cc1cc(C(F)(F)F)ccc1-2 [compound 84, 4,6-dimethoxy-N-(6-(trifluoromethyl)-8H-indeno[1,2-d]thiazol-2-yl)pyrimidine-5-carboxamide]
100 to 1000	COc1ncnc(OC)c1C(=O)Nc1nc2c(s1)C1(CCC(C)(C)CC1)Oc1cc(C(F)(F)F)ccc1-2 [compound 34, N-(4′,4′-dimethyl-7-(trifluoromethyl)spiro[chromeno[4,3-d]thiazole-4,1′-cyclohexan]-2-yl)-4,6-dimethoxypyrimidine-5-carboxamide]
≥ 10000	CCC1(CC)Oc2cc(C(F)(F)F)ccc2-c2nc(NC(=O)c3c(OC)nc(OC)nc3OC)sc21 [compound 158, N-(4,4-diethyl-7-(trifluoromethyl)-4H-chromeno[4,3-d]thiazol-2-yl)-2,4,6-trimethoxypyrimidine-5-carboxamide]
< 100	COc1ncnc(OC)c1C(=O)Nc1nc2c(s1)C1(CN(CC(C)C)C1)Oc1cc(C(F)(F)F)ccc1-2 [compound 150, N-(1-isobutyl-7′-(trifluoromethyl)spiro[azetidine-3,4′-chromeno[4,3-d]thiazol]-2′-yl)-4,6-dimethoxypyrimidine-5-carboxamide]
< 100	COc1ncnc(OC)c1C(=O)Nc1nc2c(s1)C1(CN(C(C)C)C1)Oc1cc(C(F)(F)F)ccc1-2 [compound 136, N-(1-isopropyl-7′-(trifluoromethyl)spiro[azetidine-3,4′-chromeno[4,3-d]thiazol]-2′-yl)-4,6-dimethoxypyrimidine-5-carboxamide]
≥ 10000	COc1ncnc(OC)c1C(=O)Nc1nc2c(s1)CCc1ccccc1-2 [compound 2, N-(4,5-dihydronaphtho[1,2-d]thiazol-2-yl)-4,6-dimethoxypyrimidine-5-carboxamide]
100 to 1000	CCC1(CC)Oc2cc(C(F)F)ccc2-c2nc(NC(=O)c3c(OC)ncnc3OC)sc21 [compound 105, N-(7-(difluoromethyl)-4,4-diethyl-4H-chromeno[4,3-d]thiazol-2-yl)-4,6-dimethoxypyrimidine-5-carboxamide]
100 to 1000	COc1ncnc(OC)c1C(=O)Nc1nc2c(s1)C1(CCN(C(=O)C3CC3)CC1)Oc1cc(C(F)(F)F)ccc1-2 [compound 69, N-(1′-(cyclopropanecarbonyl)-7-(trifluoromethyl)spiro[chromeno[4,3-d]thiazole-4,4′-piperidin]-2-yl)-4,6-dimethoxypyrimidine-5-carboxamide]
100 to 1000	COc1ncnc(OC)c1C(=O)Nc1nc2c(s1)C1(CCCC1)Oc1cc(C(F)(F)F)ccc1-2 [compound 23, 4,6-dimethoxy-N-(7-(trifluoromethyl)spiro[chromeno[4,3-d]thiazole-4,1′-cyclopentan]-2-yl)pyrimidine-5-carboxamide]
≥ 10000	COc1ncnc(OC)c1C(=O)Nc1nc2c(s1)C1(CCC(C(N)=O)CC1)Oc1cc(C(F)(F)F)ccc1-2 (centres unmarked) [compound 102, 2-(4,6-dimethoxypyrimidine-5-carboxamido)-7-(trifluoromethyl)spiro[chromeno[4,3-d]thiazole-4,1′-cyclohexane]-4′-carboxamide]
≥ 10000	COc1ncnc(OC)c1C(=O)Nc1nc2c(s1)CSc1ccc(Cl)cc1-2 [compound 5, N-(8-chloro-4H-thiochromeno[4,3-d]thiazol-2-yl)-4,6-dimethoxypyrimidine-5-carboxamide]
100 to 1000	COC(=O)N1CC2(C1)Oc1cc(C(F)(F)F)ccc1-c1nc(NC(=O)c3c(OC)ncnc3OC)sc12 [compound 92, methyl 2′-(4,6-dimethoxypyrimidine-5-carboxamido)-7′-(trifluoromethyl)spiro[azetidine-3,4′-chromeno[4,3-d]thiazole]-1-carboxylate]
100 to 1000	C=C(C)c1ccc2c(c1)OC(CC)(CC)c1sc(NC(=O)c3c(OC)ncnc3OC)nc1-2 [compound 55, N-(4,4-diethyl-7-(prop-1-en-2-yl)-4H-chromeno[4,3-d]thiazol-2-yl)-4,6-dimethoxypyrimidine-5-carboxamide]
100 to 1000	COc1ncnc(OC)c1C(=O)Nc1nc2c(s1)C1(COC1)Oc1cc(Br)ccc1-2 [compound 134, N-(7-bromospiro[chromeno[4,3-d]thiazole-4,3′-oxetan]-2-yl)-4,6-dimethoxypyrimidine-5-carboxamide]
100 to 1000	COc1ncnc(OC)c1C(=O)Nc1nc2c(s1)C1(CN(C(C)(C)CC(C)=O)C1)Oc1cc(C(F)(F)F)ccc1-2 [compound 167, 4,6-dimethoxy-N-(1-(2-methyl-4-oxopentan-2-yl)-7′-(trifluoromethyl)spiro[azetidine-3,4′-chromeno[4,3-d]thiazol]-2′-yl)pyrimidine-5-carboxamide]
≥ 10000	COc1ncnc(OC)c1C(=O)Nc1nc2c(ccc3cc(C#N)ccc32)s1 [compound 71, N-(7-cyanonaphtho[1,2-d]thiazol-2-yl)-4,6-dimethoxypyrimidine-5-carboxamide]
100 to 1000	CCOC(=O)N1CC2(C1)Oc1cc(C(F)(F)F)ccc1-c1nc(NC(=O)c3c(OC)ncnc3OC)sc12 [compound 78, ethyl 2′-(4,6-dimethoxypyrimidine-5-carboxamido)-7′-(trifluoromethyl)spiro[azetidine-3,4′-chromeno[4,3-d]thiazole]-1-carboxylate]
100 to 1000	CCC1(CC)Oc2cc(C3CC3)ccc2-c2nc(NC(=O)c3c(OC)ncnc3OC)sc21 [compound 54, N-(7-cyclopropyl-4,4-diethyl-4H-chromeno[4,3-d]thiazol-2-yl)-4,6-dimethoxypyrimidine-5-carboxamide]
1000 to 10000	CCC1(CC)Oc2cc(N3CCOCC3)ccc2-c2nc(NC(=O)c3c(OC)ncnc3OC)sc21 [compound 58, N-(4,4-diethyl-7-morpholino-4H-chromeno[4,3-d]thiazol-2-yl)-4,6-dimethoxypyrimidine-5-carboxamide]
100 to 1000	COc1ncnc(OC)c1C(=O)Nc1nc2c(s1)C1(CC(NC(=O)OC(C)(C)C)C1)Oc1cc(C(F)(F)F)ccc1-2 (centres unmarked) [compound 131, tert-butyl(2-(4,6-dimethoxypyrimidine-5-carboxamido)-7-(trifluoromethyl)spiro[chromeno[4,3-d]thiazole-4,1′-cyclobutan]-3′-yl)carbamate]

Structure (SMILES)	IC50 [nM]
COc1ncnc(OC)c1C(=O)Nc1nc2c(s1)C1(CCN(C3CC3)CC1)Oc1cc(C(F)(F)F)ccc1-2 [compound 154]	100 to 1000

Source: patent publication US20260217697A1, “COMPOUNDS COMPRISING HETEROARYL RINGS AND COMPOSITIONS AND METHODS THEREOF” (lonGen Therapeutics Co., Ltd., priority 2022, published 2026)
